# Test system: endogenous SK activity in MDA-MB-231 cells
# Experiment: Cellular S1P production (endogenous SK activity) in MDA-MB-231 cells
# Type: cell-based
# Details: Homo sapiens, MDA-MB-231, MDA-MB-231 cells incubated with 20 μg/mL of compound; percentage of S1P production inhibited
# Method: (§1) Human SK was incubated with 6 μg/mL of the indicated compounds, and then assayed for activity as described above. Values in the column labeled “Recombinant SK (% inhibition)” represent the percentage of SK activity that was inhibited. MDA-MB-231 cells were incubated with 20 μg/mL of the indicated compounds and then assayed for endogenous SK activity as indicated above. Values in the column labeled “Cellular S1P (% inhibition)” represent the percentage of S1P production that was inhibited. Additionally, MDA-MB-231 cells were treated with varying concentration of certain compounds and the amount of S1P produced by the cells was determined. Values in the column labeled “Cellular S1P IC50 (μM)” represent the concentration of compound required to inhibit the production of S1P by 50%. ND=not determined.
row,Compound,inhibition at 20 µg/mL [%]
1,"CN1CCCC1CCNC(=O)c1nc(-c2ccc(Cl)cc2)cs1 (centres unmarked) [B45, 4-(4-Chloro-phenyl)-thiazole-2-carboxylic acid [2-(1-methyl-pyrrolidin-2-yl)-ethyl]-amide]",0
2,"CN1CCN(NC(=O)c2nc(-c3ccc(Cl)cc3)cs2)CC1 [B46, 4-(4-Chloro-phenyl)-thiazole-2-carboxylic acid (4-methyl-piperazin-1-yl)-amide]",0
3,"Clc1ccc(-c2csc(N(CCCc3ccccc3)CCCc3ccccc3)n2)cc1 [B71, [4-(4-Chloro-phenyl)-thiazol-2-yl]-bis-(3-phenyl-propyl)-amine]",15
4,"Clc1ccc(-c2csc(N(Cc3ccccc3)Cc3ccccc3)n2)cc1 [B72, Dibenzyl-[4-(4-chloro-phenyl)-thiazol-2-yl]-amine]",27
5,"O=C(NCCN1CCOCC1)c1nc(-c2ccc(Cl)cc2)cs1 [B76, 4-(4-Chloro-phenyl)-thiazole-2-carboxylic acid (2-morpholin-4-yl-ethyl)-amide]",81
6,"CN1CCCC1CCNC(=O)c1cccc(-c2ccc(Cl)cc2)c1 (centres unmarked) [B80, 4′-Chloro-biphenyl-3-carboxylic acid [2-(1-methyl-pyrrolidin-2-yl)-ethyl]-amide]",70
7,"O=C(NCc1ccncc1)c1cccc(-c2ccc(Cl)cc2)c1 [B81, 4′-Chloro-biphenyl-3-carboxylic acid (pyridin-4-ylmethyl)-amide]",14
8,"CN1CCC(NC(=O)c2cccc(-c3ccc(Cl)cc3)c2)CC1 [B82, 4′-Chloro-biphenyl-3-carboxylic acid (1-methyl-piperidin-4-yl)-amide]",67
9,"O=C(Nc1ccc(O)cc1)c1cccc(-c2ccc(Cl)cc2)c1 [B83, 4′-Chloro-biphenyl-3-carboxylic acid (4-hydroxy-phenyl)-amide]",55
10,"O=C(NCCc1ccncc1)c1cccc(-c2ccc(Cl)cc2)c1 [B84, 4′-Chloro-biphenyl-3-carboxylic acid (2-pyridin-4-yl-ethyl)-amide]",76
11,"O=C(Nc1nc2cc(Cl)ccc2o1)c1ccccc1[N+](=O)[O-] [B87, N-(5-Chloro-benzooxazol-2-yl)-2-nitro-benzamide]",64
12,"O=C(C=Cc1ccccc1)Nc1nc2cc(Cl)ccc2o1 [B88, N-(5-Chloro-benzooxazol-2-yl)-3-phenyl-acrylamide]",46
13,"O=C(C=Cc1ccc([N+](=O)[O-])cc1)Nc1nc2cc(Cl)ccc2o1 [B89, N-(5-Chloro-benzooxazol-2-yl)-3-(4-nitro-phenyl)-acrylamide]",74
14,"C=CCCCCCCCCC(=O)Nc1nc2cc(Cl)ccc2o1 [B90, Undec-10-enoic acid (5-chloro-benzooxazol-2-yl)-amide]",39
15,"CCCCCCCCCCCCCC(=O)Nc1nc2cc(Cl)ccc2o1 [B91, Tetradecanoic acid (5-chloro-benzooxazol-2-yl)-amide]",0
16,"CCCCCCCCCCCCCCCC(=O)Nc1nc2cc(Cl)ccc2o1 [B92, Hexadecanoic acid (5-chloro-benzooxazol-2-yl)-amide]",4
17,"O=C(Nc1ccc(Cl)c(C(F)(F)F)c1)Nc1nc2cc(Cl)ccc2o1 [B93, 1-(5-Chloro-benzooxazol-2-yl)-3-(4-chloro-3-trifluoromethyl-phenyl)-urea]",53
18,"O=C(Nc1ccc(Cl)c(C(F)(F)F)c1)Nc1nc2ccccc2s1 [B94, 1-Benzothiazol-2-yl-3-(4-chloro-3-trifluoromethyl-phenyl)-urea]",13
19,"O=C(Nc1nc2cc(Cl)ccc2s1)c1ccccc1O [B96, N-(5-Chloro-benzothiazol-2-yl)-2-hydroxy-benzamide]",18
20,"O=C(Nc1nc2cc(Cl)ccc2o1)c1cccc(F)c1 [B97, N-(5-Chloro-benzooxazol-2-yl)-3-fluoro-benzamide]",38

# Same assay, conditions: Homo sapiens; MDA-MB-231 cells, varying concentrations; concentration inhibiting S1P production by 50%
row,Compound,IC50 [µM]
1,"O=C(NCCN1CCOCC1)c1nc(-c2ccc(Cl)cc2)cs1 [B76, 4-(4-Chloro-phenyl)-thiazole-2-carboxylic acid (2-morpholin-4-yl-ethyl)-amide]",5
2,"O=C(Nc1nc2cc(Cl)ccc2o1)c1ccccc1[N+](=O)[O-] [B87, N-(5-Chloro-benzooxazol-2-yl)-2-nitro-benzamide]",22
3,"O=C(C=Cc1ccc([N+](=O)[O-])cc1)Nc1nc2cc(Cl)ccc2o1 [B89, N-(5-Chloro-benzooxazol-2-yl)-3-(4-nitro-phenyl)-acrylamide]",5.8

# Target: T1, recombinant human SK (Homo sapiens, UniProt Q9NYA1)
# T1 construct: GST (glutathione-S-transferase) (N); made in house; host or cells: bacteria (pGEX bacterial expression vector)
# Experiment: Recombinant human SK activity assay ([3H]sphingosine to [3H]S1P)
# Type: biochemical
# Details: Human SK incubated with 6 μg/mL of compound; percentage of SK activity inhibited
# Method: SK activity is measured by incubation of the recombinant SK with [^3H]sphingosine and 1 mM ATP under defined conditions, followed by extraction of the assay mixture with chloroform:methanol under basic conditions. […] Radioactivity in aliquots of the aqueous phase is then quantified as a measure of [^3H]S1P formation.
# as §1
# T1 sequence (Q9NYA1 whole entry): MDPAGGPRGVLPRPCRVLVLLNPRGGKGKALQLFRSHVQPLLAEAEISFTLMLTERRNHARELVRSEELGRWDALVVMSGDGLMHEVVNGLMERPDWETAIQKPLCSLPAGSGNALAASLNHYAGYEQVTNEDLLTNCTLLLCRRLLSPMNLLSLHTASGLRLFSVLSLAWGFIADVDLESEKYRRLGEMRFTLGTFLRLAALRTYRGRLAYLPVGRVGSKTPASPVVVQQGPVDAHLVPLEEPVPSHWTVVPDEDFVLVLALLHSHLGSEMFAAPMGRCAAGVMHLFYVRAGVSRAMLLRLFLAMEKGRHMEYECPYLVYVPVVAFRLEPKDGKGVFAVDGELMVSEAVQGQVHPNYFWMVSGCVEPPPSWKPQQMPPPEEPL
Compound,Recombinant SK (% inhibition) [%],inhibition at 6 µg/mL [%]
4-(4-Chloro-phenyl)-thiazole-2-carboxylic acid 4-phenoxy benzylamide [B54],25,
"O=C(NC1CC1)C12CC3CC(C1)CC(c1ccc(Cl)cc1)(C3)C2 [A2, 3-(4-Chloro-phenyl)-adamantane-1-carboxylic acid cyclopropylamide]",,0
"CCSCCNC(=O)C12CC3CC(C1)CC(c1ccc(Cl)cc1)(C3)C2 [A3, 3-(4-Chloro-phenyl)-adamantane-1-carboxylic acid (2-ethylsulfanyl-ethyl)-amide]",,6
"CSc1ccc(CNC(=O)C23CC4CC(C2)CC(c2ccc(Cl)cc2)(C4)C3)cc1 [A14, 3-(4-Chloro-phenyl)-adamantane-1-carboxylic acid 4-methylsulfanyl-benzylamide]",,19
"O=C(NCc1ccc(C(F)(F)F)cc1)C12CC3CC(C1)CC(c1ccc(Cl)cc1)(C3)C2 [A16, 3-(4-Chloro-phenyl)-adamantane-1-carboxylic acid 4-trifluoromethyl-benzylamide]",,8
"O=C(NCc1cc(C(F)(F)F)cc(C(F)(F)F)c1)C12CC3CC(C1)CC(c1ccc(Cl)cc1)(C3)C2 [A17, 3-(4-Chloro-phenyl)-adamantane-1-carboxylic acid 3,5-bis-trifluoromethyl-benzylamide]",,56
"O=C(NCc1cc(F)cc(C(F)(F)F)c1)C12CC3CC(C1)CC(c1ccc(Cl)cc1)(C3)C2 [A18, 3-(4-Chloro-phenyl)-adamantane-1-carboxylic acid 3-fluoro-5-trifluoromethyl-benzylamide]",,0
"O=C(NCc1cc(F)cc(F)c1)C12CC3CC(C1)CC(c1ccc(Cl)cc1)(C3)C2 [A20, 3-(4-Chloro-phenyl)-adamantane-1-carboxylic acid 3,5-difluoro-benzylamide]",,0
"O=C(NCc1ccc(F)c(F)c1)C12CC3CC(C1)CC(c1ccc(Cl)cc1)(C3)C2 [A21, 3-(4-Chloro-phenyl)-adamantane-1-carboxylic acid 3,4-difluoro-benzylamide]",,65
"O=C(NCc1cc(F)c(F)c(F)c1)C12CC3CC(C1)CC(c1ccc(Cl)cc1)(C3)C2 [A22, 3-(4-Chloro-phenyl)-adamantane-1-carboxylic acid 3,4,5-trifluoro-benzylamide]",,56
"O=C(NCc1ccc(F)c(Cl)c1)C12CC3CC(C1)CC(c1ccc(Cl)cc1)(C3)C2 [A23, 3-(4-Chloro-phenyl)-adamantane-1-carboxylic acid 3-chloro-4-fluoro-benzylamide]",,0
"O=C(NCc1ccc(F)c(C(F)(F)F)c1)C12CC3CC(C1)CC(c1ccc(Cl)cc1)(C3)C2 [A24, 3-(4-Chloro-phenyl)-adamantane-1-carboxylic acid 4-fluoro-3-trifluoromethyl-benzylamide]",,20
"O=C(NCc1ccc(F)cc1Cl)C12CC3CC(C1)CC(c1ccc(Cl)cc1)(C3)C2 [A25, 3-(4-Chloro-phenyl)-adamantane-1-carboxylic acid 2-chloro-4-fluoro-benzylamide]",,47
"O=C(NCc1ccc(Cl)c(C(F)(F)F)c1)C12CC3CC(C1)CC(c1ccc(Cl)cc1)(C3)C2 [A26, 3-(4-Chloro-phenyl)-adamantane-1-carboxylic acid 4-chloro-3-trifluoromethyl-benzylamide]",,36
"NCc1c(Cl)c(Cl)c(Cl)c(CNC(=O)C23CC4CC(C2)CC(c2ccc(Cl)cc2)(C4)C3)c1Cl [A27, 3-(4-Chloro-phenyl)-adamantane-1-carboxylic acid 3-aminomethyl-2,4,5,6-tetrachloro-benzylamide]",,50
"CC(NC(=O)C12CC3CC(C1)CC(c1ccc(Cl)cc1)(C3)C2)c1ccc(Cl)cc1 (centres unmarked) [A28, 3-(4-Chloro-phenyl)-adamantane-1-carboxylic acid [1-(4-chloro-phenyl)-ethyl]-amide]",,6
"CS(=O)(=O)c1ccc(CNC(=O)C23CC4CC(C2)CC(c2ccc(Cl)cc2)(C4)C3)cc1 [A30, 3-(4-Chloro-phenyl)-adamantane-1-carboxylic acid 4-methanesulfonyl-benzylamide]",,1
"CN(C)c1ccc(CNC(=O)C23CC4CC(C2)CC(c2ccc(Cl)cc2)(C4)C3)cc1 [A31, 3-(4-Chloro-phenyl)-adamantane-1-carboxylic acid 4-dimethylamino-benzylamide]",,74
"O=C(NCc1ccc(OC(F)(F)F)cc1)C12CC3CC(C1)CC(c1ccc(Cl)cc1)(C3)C2 [A32, 3-(4-Chloro-phenyl)-adamantane-1-carboxylic acid 4-trifluoromethoxy-benzylamide]",,17
"O=C(NCc1cccc(OC(F)(F)F)c1)C12CC3CC(C1)CC(c1ccc(Cl)cc1)(C3)C2 [A33, 3-(4-Chloro-phenyl)-adamantane-1-carboxylic acid 3-trifluoromethoxy-benzylamide]",,10
"O=C(NCc1ccc(Oc2ccccc2)cc1)C12CC3CC(C1)CC(c1ccc(Cl)cc1)(C3)C2 [A34, 3-(4-Chloro-phenyl)-adamantane-1-carboxylic acid 4-phenoxy-benzylamide]",0,
